Our source for the IC50 values is US7566712B2, “Biaryl piperazinyl-pyridine analogues” (Neurogen Corporation, priority 2003, dated 2009).

In one experiment the target is T1, human capsaicin receptor (Homo sapiens, UniProt Q8NER1).
T1 construct: pBK-CMV expression construct encoding the full length human capsaicin receptor; expressed in transfected cells
T1 sequence (Q8NER1 whole entry): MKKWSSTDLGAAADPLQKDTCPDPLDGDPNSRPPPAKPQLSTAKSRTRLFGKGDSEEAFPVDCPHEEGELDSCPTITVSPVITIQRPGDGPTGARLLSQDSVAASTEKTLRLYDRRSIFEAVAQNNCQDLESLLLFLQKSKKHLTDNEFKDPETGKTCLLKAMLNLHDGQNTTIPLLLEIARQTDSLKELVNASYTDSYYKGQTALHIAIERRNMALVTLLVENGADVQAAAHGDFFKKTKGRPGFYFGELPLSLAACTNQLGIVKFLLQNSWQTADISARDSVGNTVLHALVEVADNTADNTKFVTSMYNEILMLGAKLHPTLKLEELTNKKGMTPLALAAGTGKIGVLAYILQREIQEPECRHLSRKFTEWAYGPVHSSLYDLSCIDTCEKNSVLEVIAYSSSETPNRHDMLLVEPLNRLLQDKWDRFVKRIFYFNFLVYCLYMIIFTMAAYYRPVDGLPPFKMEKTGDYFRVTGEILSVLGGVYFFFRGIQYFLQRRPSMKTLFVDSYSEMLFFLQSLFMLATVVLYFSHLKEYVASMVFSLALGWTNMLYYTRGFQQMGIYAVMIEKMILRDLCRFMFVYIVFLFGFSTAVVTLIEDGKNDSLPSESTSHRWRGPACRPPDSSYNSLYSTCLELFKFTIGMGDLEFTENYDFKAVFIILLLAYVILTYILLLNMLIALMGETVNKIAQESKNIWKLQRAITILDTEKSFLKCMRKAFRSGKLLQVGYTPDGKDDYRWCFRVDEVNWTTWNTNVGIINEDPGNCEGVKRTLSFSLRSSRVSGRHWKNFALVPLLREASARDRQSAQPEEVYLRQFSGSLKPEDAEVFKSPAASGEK
Nature of the experiment: Calcium mobilization assay, determination of antagonist activity (Example 6). In kind it is cell-based. The note with it: Table II; IC50 determined as described in Example 6. The essentials:
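HEK293 clonal lines stably expressing full-length human capsaicin receptor, loaded with Fluo-3 AM in KRH buffer pH 7.4, 1–2 h at 37 °C. Compounds (1–5 μM final) preincubated 0.5–6 h at room temperature, then capsaicin at its EC50 added. FLIPR/Fluoroskan calcium signal; IC50 as 50% decrease of capsaicin response.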
For orientation: A change in cytosolic calcium serves as a functional read-out for many receptors and channels.
By IC50 is commonly meant the concentration that gives 50% inhibition. Regarding `CC(=O)NC1CCN(c2nc(-c3ccc(F)c(Cl)c3)cc(N3CCN(c4ncccc4C(F)(F)F)CC3)n2)CC1` [Example 571, N-[1-(4-(3-chloro-4-fluorophenyl)-6-{4-[3-(trifluoromethyl)pyridin-2-yl]piperazin-1-yl}pyrimidin-2-yl)piperidin-4-yl]acetamide], the IC50 is at most 1000 nM.

For the compound `CN1CCC(N(C)c2nc(-c3ccc(F)c(Cl)c3)cc(N3CCN(c4ncccc4C(F)(F)F)CC3)n2)CC1` [Example 565], the IC50 is at most 1000 nM.

In the case of `Cc1cccnc1N1CCN(c2cc(-c3ccc(C(C)C)cc3)nc(N3CCOCC3)n2)[C@H](C)C1` [Example 504, 4-{4-(4-isopropylphenyl)-6-[(2R)-2-methyl-4-(3-methylpyridin-2-yl)piperazin-1-yl]pyrimidin-2-yl}morpholine], the IC50 is at most 1000 nM.

Turning to `C[C@@H]1CN(c2ncccc2C(F)(F)F)CCN1c1cc(-c2ccc(OC(F)(F)F)cc2)nc(N2CCOCC2)n1` [Example 528, 4-{4-{(2R)-2-methyl-4-(3-(trifluoromethyl)pyridin-2-yl]piperazin-1-yl}-6-[4-(trifluoromethoxy)phenyl]pyrimidin-2-yl}morpholine], the half-maximal inhibitory concentration (IC50) is at most 1000 nM.

As to `CCCc1ccc(-c2cc(N3CCN(c4ncccc4Cl)C[C@H]3C)nc(N3CCOCC3)n2)cc1` [Example 513, 4-[4-[(2R)-4-(3-chloropyridin-2-yl)-2-methylpiperazin-1-yl]-6-(4-propylphenyl)pyrimidin-2-yl]morpholine], the IC50 was at most 1000 nM.

As for `O=C(O)[C@@H]1CCCN1c1nc(-c2ccc(F)c(Cl)c2)cc(N2CCN(c3ncccc3C(F)(F)F)CC2)n1` [Example 552, 1-(4-(3-chloro-4-fluorophenyl)-6-{4-[3-(trifluoromethyl)pyridin-2-yl]piperazin-1-yl}pyrimidin-2-yl)-L-proline], the IC50 is at most 1000 nM.

In the case of `CCc1cccc(-c2cc(N3CCN(c4ncccc4Cl)C[C@H]3C)nc(N3CCOCC3)n2)c1` [Example 517, 4-[4-[(2R)-4-(3-chloropyridin-2-yl)-2-methylpiperazin-1-yl]-6-(3-ethylphenyl)pyrimidin-2-yl]morpholine], the IC50 is at most 1000 nM.

The same experiment, now with this note: Table II; IC50 determined as described in Example 6 (antagonist activity, calcium mobilization).
Regarding `CC1CCCN1c1nc(-c2ccc(F)cc2)cc(N2CCN(c3nc(Cl)ccc3Cl)C[C@H]2C)n1` (stereo partly drawn) [Example 1011, 4-[4-(3,6-dichloropyridin-2-yl)-2-methylpiperazin-1-yl]-6-(4-fluorophenyi)-2-(2-methylpyrrolidin-1-yl)pyrimidine], the IC50 was at most 1000 nM.

The same experiment, now with this note: Table II; determined as described in Example 6 (antagonist activity); "*" = 1 micromolar or less.
Turning to `C[C@H]1CN(c2nccnc2Cl)CCN1c1cc(-c2ccc(Cl)c(F)c2)nc(N2CCCC2)n1` [Example 961, 4-(4-chloro-3-fluorophenyl)-6-[(2S)-4-(3-chloropyrazin-2-yl)-2-methylpiperazin-1-yl]-2-pyrrolidin-1-ylpyrimidine], the IC50 was at most 1000 nM.

`C[C@H]1CN(c2ncccc2Cl)CCN1c1cc(-c2ccc(Cl)c(F)c2)nc(Cl)n1` [Example 953, 2-chloro-4-(4-chloro-3-fluorophenyl)-6-[(2S)-4-(3-chloropyridin-2-yl)-2-methylpiperazin-1-yl]pyrimidine]: the IC50 is at most 1000 nM.

For `C[C@@H]1CCCN1c1cc(-c2ccc(F)c(F)c2)nc(N2CCN(c3ncccc3Cl)C[C@@H]2C)n1` [Example 949, 2-[(2S)-4-(3-chloropyridin-2-yl)-2-methylpiperazin-1-yl]-4-(3,4-difluorophenyl)-6-[(2R)-2-methylpyrrolidin-1-yl]pyrimidine], the IC50 was at most 1000 nM.

In the case of `Cc1cc(-c2cc(N3CCN(c4nccnc4Cl)C[C@H]3C)nc(N3CCCC3)n2)ccc1F` [Example 914, 4-[(2R)-4-(3-chloropyrazin-2-yl)-2-methylpiperazin-1-yl]-6-(4-fluoro-3-methylphenyl)-2-pyrrolidin-1-ylpyrimidine], the IC50 was at most 1000 nM.

Consider `Cc1ccc(-c2cc(N3CCN(c4ncccc4Cl)C[C@H]3C)nc(N3CCCCC3)n2)cc1F` [Example 804, 4-[(2R)-4-(3-chloropyridin-2-yl)-2-methylpiperazin-1-yl]-6-(3-fluoro-4-methylphenyl)-2-piperidin-1-ylpyrimidine], for which the 50% inhibitory concentration (IC50) was at most 1000 nM.

Take `C[C@@H]1CCCN1c1cc(-c2ccc(F)c(Cl)c2)nc(N2CCN(c3ncccc3Cl)C[C@@H]2C)n1` [Example 948, 4-(3-chloro-4-fluorophenyl)-2-[(2S)-4-(3-chloropyridin-2-yl)-2-methylpiperazin-1-yl]-6-[(2R)-2-methylpyrrolidin-1-yl]pyrimidine]: the concentration for half-maximal inhibition (IC50) is at most 1000 nM.

As for `C[C@@H]1CCCN1c1nc(-c2ccc(F)c(F)c2)cc(N2CCN(c3nccnc3Cl)C[C@@H]2C)n1` [Example 951, 4-[(2S)-4-(3-chloropyrazin-2-yl)-2-methylpiperazin-1-yl]-6-(3,4-difluorophenyl)-2-[(2R)-2-methylpyrrolidin-1-yl]pyrimidine], the IC50 was at most 1000 nM.

Consider `Cc1cc(-c2cc(N3CCN(c4ncccc4C(F)(F)F)C[C@H]3C)nc(N3CCC3C)n2)ccc1F` (stereo partly drawn) [Example 786, 4-(4-fluoro-3-methyiphenyl)-2-(2-methylazetidin-1-yl)-6-{(2R)-2-methyl-4-[3-(trifluoromethyl)pyridin-2-yl]piperazin-1-yl}pyrimidine], for which the IC50 was at most 1000 nM.

As to `CC1CCCN1c1nc(-c2cccnc2)cc(N2CCN(c3ncccc3Cl)C[C@H]2C)n1` (stereo partly drawn) [Example 882, 4-[4-(3-chloropyridin-2-yl)-2-methylpiperazin-1-yl]-2-(2-methylpyrrolidin-1-yl)-6-pyridin-3-ylpyrimidine], the IC50 is at most 1000 nM.

As for `COC[C@@H]1CCCN1c1nc(-c2ccc(F)cc2)cc(N2CCN(c3ncccc3Cl)C[C@H]2C)n1` [Example 843, 4-[(2R)-4-(3-chloropyridin-2-yl)-2-methylpiperazin-1-yl]-6-(4-fluorophenyl)-2-[(2S)-2-(methoxymethyl)pyrrolidin-1-yl]pyrimidine], the IC50 is at most 1000 nM.

Regarding `Cc1ccc(C)n1-c1nc(-c2ccc(F)cc2)cc(N2CCN(c3ncccc3Cl)C[C@H]2C)n1` [Example 873, 4-((2R)-4-(3-chloropyridin-2-yl)-2-methylpiperazin-1-yl]-2-(2,5-dimethyl-1H-pyrrol-1-yl)-6-(4-fluorophenyl)pyrimidine], the IC50 was at most 1000 nM.

For the compound `C[C@@H]1CN(c2nccnc2Cl)CCN1c1cc(-c2ccc(F)cc2)nc(N2CCCC2)n1` [Example 928, 4-[(2R)-4-(3-chloropyrazin-2-yl)-2-methylpiperazin-1-yl]-6-(4-fluorophenyl)-2-pyrrolidin-1-ylpyrimidine], the IC50 was at most 1000 nM.

Turning to `Cc1cc(NS(C)(=O)=O)cnc1N1CCN(c2cc(-c3ccc(F)c(Cl)c3)nc(N3CCCC3C)n2)CC1` (stereo not drawn) [Example 817, N-(6-{4-[6-(3-chloro-4-fluorophenyl)-2-(2-methylpyrrolidin-1-yl)pyrimidin-4-yl]piperazin-1-yl}-5-methylpyridin-3-yl)methanesulfonamide], the IC50 was at most 1000 nM.

In the case of `CC1CCCN1c1nc(-c2ccc(F)cc2)cc(N2CCN(c3ncccc3C(F)(F)F)C[C@H]2C)n1` (stereo partly drawn) [Example 783, 4-(4-fluorophenyl)-2-(2-methylpyrrolidin-1-yl)-6-{(2R)-2-methyl-4-[3-(trifluoromethyl)pyridin-2-yl]piperazin-1-yl}pyrimidine], the 50% inhibitory concentration (IC50) was at most 1000 nM.

The same experiment, now with this note: Table II; determined as described in Example 6; class symbol.
As for `Cc1ccc(C)c(-c2nc(N3CCOCC3)nc(N3CCN(c4ccccn4)CC3)n2)c1` [Example 269, 2-(2,5-dimethylphenyl)-4-morpholin-4-yl-6-(4-pyridin-2-ylpiperazin-1-yl)-1,3,5-triazine], the IC50 was at most 1000 nM.

Regarding `Cc1ccc(F)cc1-c1nc(N2CCOCC2)nc(N2CCN(c3ccccn3)CC2)n1` [Example 272, 2-(5-fluoro-2-methylphenyl)-4-morpholin-4-yl-6-(4-pyridin-2-ylpiperazin-1-yl)-1,3,5-triazine], the IC50 is at most 1000 nM.

For `CCc1ccccc1-c1nc(N2CCOCC2)nc(N2CCN(c3ccccn3)CC2)n1` [Example 274, 2-(2-ethylphenyl)-4-morpholin-4-yl-6-(4-pyridin-2-ylpiperazin-1-yl)-1,3,5-triazine], the IC50 was at most 1000 nM.

Still in this experiment, the particulars now being: determined as described in Example 6 (calcium mobilization, antagonist activity); Table II.
Turning to `Cc1cc(-c2cc(N3CCN(c4ncccc4Cl)C[C@H]3C)nc(N3CCCC3C)n2)ccc1F` (stereo partly drawn) [Example 719, 4-[(2R)-4-(3-chloropyridin-2-yl)-2-methylpiperazin-1-yl]-6-(4-fluoro-3-methylphenyl)-2-(2-methylpyrrolidin-1-yl)pyrimidine], the IC50 is at most 1000 nM.

For `Cc1cccnc1N1CCN(c2cc(-c3ccc(F)c(Cl)c3)nc(N3CCOCC3)n2)CC1=O` [Example 661, 4-[6-(3-chloro-4-fluorophenyl)-2-morpholin-4-ylpyrimidin-4-yl]-1-(3-methylpyridin-2-yl)piperazin-2-one], the IC50 was at most 1000 nM.

On to `CN(c1nc(-c2ccc(F)c(Cl)c2)cc(N2CCN(c3ncccc3C(F)(F)F)CC2)n1)C1CCCCC1` [Example 578, 4-(3-chloro-4-fluorophenyl)-N-cyclohexyl-N-methyt-6-{4-[3-(trifluoromethyl)pyridin-2-yl]piperazin-1-yl}pyrimidin-2-amine], for which the IC50 was at most 1000 nM.

In the case of `C[C@@H]1CN(c2ncccc2Cl)CCN1c1cc(-c2ccc(F)c(Cl)c2)nc(S(=O)(=O)Cc2ccccc2)n1` [Example 723, 2-(benzylsulfonyl)-4-(3-chloro-4-fluorophenyl)-6-[(2R)-4-(3-chloropyridin-2-yl)-2-methylpiperazin-1-yl]pyrimidine], the IC50 is at most 1000 nM.

As to `Cc1cc(-c2cc(N3CCN(c4ncccc4C(F)(F)F)C[C@H]3C)nc(N3CCCC3C)n2)ccc1F` (stereo partly drawn) [Example 754, 4-(4-fluoro-3-methyiphenyl)-2-(2-methylpyrrolidin-1-yl)-6-{(2R)-2-methyt-4-[3-(trifluoromethyl)pyridin-2-yl]piperazin-1-yl}pyrimidine], the IC50 is at most 1000 nM.
